Results taken from publication PMC12406681 (Antimicrobial Agents and Chemotherapy, 2025).
Like-named read-outs stand apart in the source and are kept apart here.

Assays:
Format in all cases: cell-based, La Crosse virus
LACV V27A mutant [1] = conditions: Vero cells; for Fold change (/original stock) / Fold change (/passage control): EC50 ratio; for EC50: mean ± SD
LACV D35G mutant [2] = conditions: Vero cells; for Fold change (/original stock) / Fold change (/passage control): EC50 ratio; for EC50: mean ± SD
LACV V27A mutant [3] = tested on: LACV V27A mutant
LACV D35G mutant [4] = tested on: LACV D35G mutant

SMILES	Fold change (/original stock) (LACV V27A mutant [1])	Fold change (/passage control) (LACV V27A mutant [1])	EC50 (LACV V27A mutant [1]) [µM]	Fold change (/original stock) (LACV D35G mutant [2])	Fold change (/passage control) (LACV D35G mutant [2])	EC50 (LACV D35G mutant [2]) [µM]	EC50 (LACV V27A mutant [3]) [µM]	Fold change (/original stock) (LACV V27A mutant [3])	Fold change (/passage control) (LACV V27A mutant [3])	EC50 (LACV D35G mutant [4]) [µM]	Fold change (/original stock) (LACV D35G mutant [4])	Fold change (/passage control) (LACV D35G mutant [4])
NC(=O)c1nc(F)c[nH]c1=O [T-705, favipiravir, reference compound]	1.17	1.01	44.3 ± 5.15	1.51	1.30	57 ± 11.8						
CC(C)N1CN(C2c3ccccc3CCc3ccccc32)n2cc(C(=O)O)c(=O)c(O)c2C1=O [CAPCA-1, carbamoyl pyridone carboxylic acid (CAPCA)-1]	12.91	7.03	5.55 ± 1.64	>46.51	>25.32	> 20	4.63 ± 0.8	4.87	7.12	12.9 ± 2.22	13.57	19.83
